The source made the active and inactive calls. The calls are words filed in the database; no cut-off is given here.
Key:
[1] = biological target: T1, BDNF/NT-3 growth factors receptor (Homo sapiens, UniProt Q16620); assay: Inhibition of human TrkB at 100 nM in presence of ATP relative to control
[2] = biological target: Cyclin-dependent kinase 5 (Homo sapiens) (UniProt Q00535); assay: Inhibition of human CDK5 at 100 nM in presence of ATP relative to control
[3] = biological target: T2, High affinity nerve growth factor receptor (Homo sapiens, UniProt P04629); assay: Inhibition of human TrkA in presence of ATP
Target sequence in this assay (P04629 whole entry): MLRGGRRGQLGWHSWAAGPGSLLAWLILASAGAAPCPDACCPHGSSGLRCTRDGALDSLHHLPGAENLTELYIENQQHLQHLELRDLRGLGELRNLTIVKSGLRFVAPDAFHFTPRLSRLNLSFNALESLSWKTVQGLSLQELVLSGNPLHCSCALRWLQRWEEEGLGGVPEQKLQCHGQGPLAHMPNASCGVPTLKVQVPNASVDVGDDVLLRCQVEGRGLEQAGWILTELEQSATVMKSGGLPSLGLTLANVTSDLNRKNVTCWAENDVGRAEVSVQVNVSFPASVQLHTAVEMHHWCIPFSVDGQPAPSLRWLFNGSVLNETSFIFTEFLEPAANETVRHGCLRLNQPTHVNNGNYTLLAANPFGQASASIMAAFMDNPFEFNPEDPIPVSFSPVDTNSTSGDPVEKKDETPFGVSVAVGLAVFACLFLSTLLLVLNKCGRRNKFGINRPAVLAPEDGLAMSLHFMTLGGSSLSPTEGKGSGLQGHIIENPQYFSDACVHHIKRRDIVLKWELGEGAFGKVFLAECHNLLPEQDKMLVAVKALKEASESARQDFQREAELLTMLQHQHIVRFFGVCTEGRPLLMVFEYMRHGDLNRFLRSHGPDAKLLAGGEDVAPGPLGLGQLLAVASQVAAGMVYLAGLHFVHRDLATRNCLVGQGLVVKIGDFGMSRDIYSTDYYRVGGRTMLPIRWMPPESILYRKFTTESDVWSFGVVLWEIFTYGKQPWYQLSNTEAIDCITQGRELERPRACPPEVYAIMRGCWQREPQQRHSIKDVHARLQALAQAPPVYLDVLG

[4] = biological target: Cyclin-dependent kinase 1 (Homo sapiens) (UniProt P06493); assay: Inhibition of human CDK1 at 100 nM in presence of ATP relative to control
[5] = biological target: Receptor-type tyrosine-protein kinase FLT3 (Homo sapiens, UniProt P36888, ITD); assay: Binding affinity to human FLT3 ITD mutant in presence of ATP by Lanthascreen Eu kinase binding assay
[6] = biological target: Cyclin-dependent kinase 2 (Homo sapiens) (UniProt P24941); assay: Inhibition of human CDK2 at 100 nM in presence of ATP relative to control
MOLM-14 [7] = assay: cells; details: Homo sapiens
Description: Antiproliferative activity against human MOLM14 cells harboring ITD/D835Y mutant assessed as cell growth inhibition by MTT assay

[8] = Toxicity in BALB/c nu/nu mouse xenografted with human MV4-11 cells assessed as body weight loss at 20 mg/kg, po administered for 21 days; type: organism-based; details: in vivo, 504 h, time 21 day
[9] = biological target: T3, Vascular endothelial growth factor receptor 3 (Homo sapiens, UniProt P35916); assay: Inhibition of human FLT4 in presence of ATP
T3 sequence (P35916 whole entry): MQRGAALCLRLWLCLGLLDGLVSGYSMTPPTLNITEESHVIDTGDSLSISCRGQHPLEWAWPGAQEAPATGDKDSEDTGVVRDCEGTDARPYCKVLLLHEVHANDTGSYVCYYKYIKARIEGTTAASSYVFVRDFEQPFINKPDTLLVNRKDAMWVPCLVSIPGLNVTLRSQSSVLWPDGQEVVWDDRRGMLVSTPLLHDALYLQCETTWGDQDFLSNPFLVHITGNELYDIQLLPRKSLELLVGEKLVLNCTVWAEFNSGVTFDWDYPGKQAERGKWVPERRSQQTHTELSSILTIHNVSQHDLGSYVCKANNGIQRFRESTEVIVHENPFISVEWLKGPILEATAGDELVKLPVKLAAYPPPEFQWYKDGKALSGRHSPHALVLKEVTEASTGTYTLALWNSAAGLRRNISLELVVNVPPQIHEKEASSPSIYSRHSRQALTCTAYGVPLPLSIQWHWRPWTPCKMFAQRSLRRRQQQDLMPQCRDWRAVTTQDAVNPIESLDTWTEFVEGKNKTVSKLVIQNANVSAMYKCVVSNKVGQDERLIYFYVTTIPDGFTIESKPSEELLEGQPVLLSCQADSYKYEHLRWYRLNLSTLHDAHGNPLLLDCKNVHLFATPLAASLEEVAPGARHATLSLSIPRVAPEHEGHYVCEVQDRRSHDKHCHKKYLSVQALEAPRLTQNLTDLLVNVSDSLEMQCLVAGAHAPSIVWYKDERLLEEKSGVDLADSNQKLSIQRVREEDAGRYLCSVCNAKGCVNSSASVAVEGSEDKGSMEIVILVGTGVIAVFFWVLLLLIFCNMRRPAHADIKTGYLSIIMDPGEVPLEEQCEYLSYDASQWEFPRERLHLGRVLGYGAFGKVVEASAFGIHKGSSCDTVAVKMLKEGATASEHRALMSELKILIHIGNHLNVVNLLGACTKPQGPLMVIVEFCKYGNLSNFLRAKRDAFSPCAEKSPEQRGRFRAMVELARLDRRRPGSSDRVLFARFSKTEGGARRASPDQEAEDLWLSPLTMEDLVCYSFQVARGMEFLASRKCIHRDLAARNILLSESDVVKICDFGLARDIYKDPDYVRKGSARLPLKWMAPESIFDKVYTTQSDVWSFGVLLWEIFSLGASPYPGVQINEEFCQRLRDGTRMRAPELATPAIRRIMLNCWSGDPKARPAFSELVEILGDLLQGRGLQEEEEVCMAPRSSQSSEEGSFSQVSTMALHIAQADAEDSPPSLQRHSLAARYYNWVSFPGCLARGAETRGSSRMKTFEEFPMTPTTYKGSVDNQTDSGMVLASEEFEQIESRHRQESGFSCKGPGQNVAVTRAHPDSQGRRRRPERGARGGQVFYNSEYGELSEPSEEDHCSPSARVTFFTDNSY

[10] = biological target: Receptor-type tyrosine-protein kinase FLT3 (Homo sapiens) (UniProt P36888); assay: Inhibition of human FLT3 at 100 nM in presence of ATP relative to control
[11] = biological target: T4, Proto-oncogene tyrosine-protein kinase Src (Homo sapiens, UniProt P12931); assay: Inhibition of human c-SRC at 100 nM in presence of ATP relative to control
T4 sequence (P12931 2-536 limits assumed): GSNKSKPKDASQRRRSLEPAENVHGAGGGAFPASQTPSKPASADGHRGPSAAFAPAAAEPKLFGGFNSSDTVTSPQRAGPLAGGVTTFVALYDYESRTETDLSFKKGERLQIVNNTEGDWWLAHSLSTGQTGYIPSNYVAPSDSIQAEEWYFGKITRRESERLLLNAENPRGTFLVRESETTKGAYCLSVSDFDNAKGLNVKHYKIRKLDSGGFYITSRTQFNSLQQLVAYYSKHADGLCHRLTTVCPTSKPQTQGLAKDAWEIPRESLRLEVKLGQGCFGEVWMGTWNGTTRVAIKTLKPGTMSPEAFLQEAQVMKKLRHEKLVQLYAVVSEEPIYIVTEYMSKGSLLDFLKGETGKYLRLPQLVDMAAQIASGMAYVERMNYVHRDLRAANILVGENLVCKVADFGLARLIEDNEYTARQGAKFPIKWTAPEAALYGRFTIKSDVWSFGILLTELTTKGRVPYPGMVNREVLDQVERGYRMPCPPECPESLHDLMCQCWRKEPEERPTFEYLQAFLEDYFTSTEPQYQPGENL

[12] = biological target: Receptor-type tyrosine-protein kinase FLT3 (Homo sapiens) (UniProt P36888); assay: Inhibition of FLT3 in human MV4-11 cells assessed as reduction in Erk1/2 phosphorylation at 0.01 to 1 uM incubated for 4 hrs by Western blot analysis; type: cell-based; details: dose 0.01-1 µM
[13] = Acute toxicity in ICR female mouse assessed as approximate lethal dose; details: in vivo
[14] = biological target: T5, Proto-oncogene tyrosine-protein kinase receptor Ret (Homo sapiens, UniProt P07949); assay: Inhibition of human RET at 100 nM in presence of ATP relative to control
T5 sequence (P07949 whole entry): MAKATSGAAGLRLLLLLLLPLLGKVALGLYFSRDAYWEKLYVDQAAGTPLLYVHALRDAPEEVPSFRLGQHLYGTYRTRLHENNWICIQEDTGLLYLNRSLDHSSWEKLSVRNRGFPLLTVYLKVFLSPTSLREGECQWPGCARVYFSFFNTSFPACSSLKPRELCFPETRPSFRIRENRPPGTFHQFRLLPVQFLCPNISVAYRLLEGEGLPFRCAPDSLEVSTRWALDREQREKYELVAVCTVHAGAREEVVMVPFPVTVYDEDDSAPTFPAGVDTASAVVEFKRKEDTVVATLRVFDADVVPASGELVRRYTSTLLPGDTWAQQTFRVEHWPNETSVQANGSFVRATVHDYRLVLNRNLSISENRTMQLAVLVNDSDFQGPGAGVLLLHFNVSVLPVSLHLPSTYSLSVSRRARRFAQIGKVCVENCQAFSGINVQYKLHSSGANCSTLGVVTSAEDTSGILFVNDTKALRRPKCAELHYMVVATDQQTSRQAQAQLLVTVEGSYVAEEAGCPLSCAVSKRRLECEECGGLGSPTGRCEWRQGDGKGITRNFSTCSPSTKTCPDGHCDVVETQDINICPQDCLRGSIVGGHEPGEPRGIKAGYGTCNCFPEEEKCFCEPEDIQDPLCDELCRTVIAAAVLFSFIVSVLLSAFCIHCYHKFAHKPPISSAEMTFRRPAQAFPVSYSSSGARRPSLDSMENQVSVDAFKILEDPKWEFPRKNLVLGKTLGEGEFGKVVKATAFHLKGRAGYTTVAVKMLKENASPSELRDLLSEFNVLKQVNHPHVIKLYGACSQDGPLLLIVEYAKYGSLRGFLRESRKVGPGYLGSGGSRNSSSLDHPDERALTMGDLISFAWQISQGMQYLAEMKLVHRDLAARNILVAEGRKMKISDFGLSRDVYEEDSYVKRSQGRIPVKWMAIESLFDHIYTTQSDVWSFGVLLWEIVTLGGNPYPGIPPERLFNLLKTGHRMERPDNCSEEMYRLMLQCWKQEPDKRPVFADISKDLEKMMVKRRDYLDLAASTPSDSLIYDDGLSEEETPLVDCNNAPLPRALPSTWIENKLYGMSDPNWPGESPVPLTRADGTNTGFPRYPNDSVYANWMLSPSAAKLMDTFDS

[15] = biological target: Mast/stem cell growth factor receptor Kit (Homo sapiens) (UniProt P10721); assay: Inhibition of human c-KIT at 100 nM in presence of ATP relative to control
[16] = Acute toxicity in ICR male mouse assessed as approximate lethal dose; details: in vivo, read-out: ALD50
MV4-11 [17] = assay: Antitumor activity against human MV4-11 cells xenografted in BALB/c nu/nu mouse assessed as reduction in tumor volume at 20 mg/kg, po administered once daily for 21 days measured twice daily during compound dosing; type: functional, organism-based; details: time 21.0 day
[18] = biological target: T2, High affinity nerve growth factor receptor; assay: Inhibition of human TrkA at 100 nM in presence of ATP relative to control
[19] = biological target: Platelet-derived growth factor receptor alpha (Homo sapiens) (UniProt P16234); assay: Inhibition of human PDGFRa at 100 nM in presence of ATP relative to control
MOLM-14 [20] = assay: cells; details: Homo sapiens; remark: listed apart in the source
Description: Antiproliferative activity against human MOLM14 cells harboring ITD mutant assessed as cell growth inhibition by MTT assay

[21] = biological target: T6, Macrophage colony-stimulating factor 1 receptor (Homo sapiens, UniProt P07333); assay: Inhibition of human FMS in presence of ATP
T6 sequence (P07333 whole entry): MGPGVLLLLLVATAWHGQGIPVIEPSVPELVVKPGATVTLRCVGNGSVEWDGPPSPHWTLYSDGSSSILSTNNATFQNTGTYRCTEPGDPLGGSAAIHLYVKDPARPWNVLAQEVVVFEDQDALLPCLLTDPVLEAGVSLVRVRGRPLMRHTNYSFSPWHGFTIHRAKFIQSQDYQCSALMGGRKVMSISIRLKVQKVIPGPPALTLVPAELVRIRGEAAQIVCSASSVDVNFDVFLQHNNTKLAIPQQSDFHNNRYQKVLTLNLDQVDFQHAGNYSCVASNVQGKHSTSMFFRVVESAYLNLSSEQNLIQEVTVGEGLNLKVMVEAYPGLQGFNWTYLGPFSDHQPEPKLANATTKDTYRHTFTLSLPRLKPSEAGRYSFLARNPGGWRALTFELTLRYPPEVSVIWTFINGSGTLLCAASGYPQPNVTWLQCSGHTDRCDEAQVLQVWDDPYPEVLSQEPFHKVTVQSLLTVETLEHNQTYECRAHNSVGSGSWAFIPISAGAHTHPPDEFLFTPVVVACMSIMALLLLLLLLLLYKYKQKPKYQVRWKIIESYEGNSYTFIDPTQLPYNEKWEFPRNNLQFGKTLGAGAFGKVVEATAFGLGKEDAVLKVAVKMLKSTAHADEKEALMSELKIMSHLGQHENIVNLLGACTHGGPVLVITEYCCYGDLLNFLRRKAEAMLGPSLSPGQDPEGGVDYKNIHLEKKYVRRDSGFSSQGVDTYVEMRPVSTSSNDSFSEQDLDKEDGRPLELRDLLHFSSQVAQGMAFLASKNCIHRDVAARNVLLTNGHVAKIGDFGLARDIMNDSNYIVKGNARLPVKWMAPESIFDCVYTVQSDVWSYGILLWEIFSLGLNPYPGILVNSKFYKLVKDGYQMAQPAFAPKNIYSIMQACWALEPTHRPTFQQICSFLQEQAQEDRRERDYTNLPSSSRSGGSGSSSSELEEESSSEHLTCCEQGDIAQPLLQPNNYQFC

[22] = biological target: T1, BDNF/NT-3 growth factors receptor; assay: Inhibition of human TrkB in presence of ATP
[23] = biological target: Maternal embryonic leucine zipper kinase (Homo sapiens, UniProt Q14680); assay: Inhibition of human MELK in presence of ATP
[24] = Acute toxicity in ICR mouse assessed as median lethal dose; details: in vivo
[25] = biological target: T6, Macrophage colony-stimulating factor 1 receptor; assay: Inhibition of human FMS at 100 nM in presence of ATP relative to control
[26] = biological target: T3, Vascular endothelial growth factor receptor 3; assay: Inhibition of human FLT4 at 100 nM in presence of ATP relative to control
[27] = biological target: T5, Proto-oncogene tyrosine-protein kinase receptor Ret; assay: Inhibition of human RET in presence of ATP
MV4-11 [28] = assay: cells; details: Homo sapiens, MV4-11, 72 h
Description: Antiproliferative activity against human MV4-11 cells assessed as cell growth inhibition after 72 hrs by WST assay

[29] = AUClast in ICR mouse at 10 mg/kg, iv or po measured up to 1440 mins by LC-MS/MS analysis; type: ADME, organism-based; set-up: dose 10 mg/kg, time <=1440; details: in vivo
K562 = assay: Antiproliferative activity against human K562 cells assessed as cell growth inhibition by WST assay; type: functional
MOLM-14 [30] = assay: cells; details: Homo sapiens; remark: listed apart in the source
Description: Antiproliferative activity against wild type human MOLM14 cells assessed as cell growth inhibition by MTT assay

hERG (KCNH2) = hERG (KCNH2) (Homo sapiens, UniProt Q12809); assay: Inhibition of human ERG at 10 uM relative to control
HepG2 = assay: cells; details: Homo sapiens
Description: Antiproliferative activity against human HepG2 cells assessed as cell growth inhibition by WST assay

[31] = biological target: Receptor-type tyrosine-protein kinase FLT3 (Homo sapiens) (UniProt P36888); assay: Inhibition of FLT3 in human MV4-11 cells assessed as reduction in STAT5 phosphorylation at 10 nM incubated for 4 hrs by Western blot analysis; type: cell-based
MOLM-14 [32] = assay: cells; details: Homo sapiens; remark: listed apart in the source
Description: Antiproliferative activity against human MOLM14 cells harboring ITD/F691L mutant assessed as cell growth inhibition by MTT assay

[33] = biological target: Tyrosine-protein kinase Mer (Homo sapiens) (UniProt Q12866); assay: Inhibition of human MER at 100 nM in presence of ATP relative to control
[34] = biological target: Tyrosine-protein kinase Mer (Homo sapiens, UniProt Q12866); assay: Inhibition of human MER in presence of ATP
[35] = Cmax in ICR mouse at 10 mg/kg, iv or po measured up to 1440 mins by LC-MS/MS analysis; type: ADME, organism-based; set-up: dose 10 mg/kg, time <=1440; details: in vivo
MDA-MB-231 = assay: cells; details: Homo sapiens, MDA-MB-231, read-out: INH
Description: Antiproliferative activity against human MDA-MB-231 cells assessed as cell growth inhibition at 1 uM by WST assay relative to control

[36] = biological target: T4, Proto-oncogene tyrosine-protein kinase Src; assay: Inhibition of human c-SRC in presence of ATP
[37] = Selectivity index, ratio of GI50 for human K562 cells to GI50 for human MV4-11 cells; type: functional
[38] = tested on: Receptor-type tyrosine-protein kinase FLT3 (Homo sapiens), P36888 [D835Y]; assay: Inhibition of human FLT3 D835Y mutant at 100 nM in presence of ATP relative to control
[39] = Oral bioavailability in ICR mouse at 10 mg/kg measured up to 1440 mins by LC-MS/MS analysis; type: ADME, organism-based; details: in vivo

Chain of Cyclin-dependent kinase 5 (Homo sapiens) (Q00535 whole entry, looked up): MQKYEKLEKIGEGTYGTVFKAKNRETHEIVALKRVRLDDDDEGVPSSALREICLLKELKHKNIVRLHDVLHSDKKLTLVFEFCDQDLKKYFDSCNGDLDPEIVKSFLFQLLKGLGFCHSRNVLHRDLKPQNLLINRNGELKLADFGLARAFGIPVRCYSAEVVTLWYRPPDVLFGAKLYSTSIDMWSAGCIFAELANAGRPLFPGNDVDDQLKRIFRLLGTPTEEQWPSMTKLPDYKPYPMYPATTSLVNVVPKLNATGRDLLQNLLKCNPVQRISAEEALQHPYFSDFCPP

Question: For `Cl.O=C1Nc2ccc(F)cc2/C1=C1/Nc2ccccc2/C1=N\OCCN1CCNCC1`, which inhibition [1] is on record?
Answer: Its inhibition is 100%.

Question: What about the inhibition [2] of the same compound?
Answer: The inhibition was 54%.

Question: And the IC50 [3]?
Answer: Its IC50 is 6.89 nM.

Question: And the inhibition [4]?
Answer: The inhibition was 21%.

Question: And the Kd [5]?
Answer: The Kd was under 0.25 nM.

Question: What about the inhibition [6] of the same compound?
Answer: The inhibition was 43%.

Question: And the GI50 (MOLM-14 [7])?
Answer: The GI50 was 1.87 nM.

Question: What about the Activity [8] of the same compound?
Answer: Its Activity is “Non-Toxic”.

Question: And the IC50 [9]?
Answer: Its IC50 is 23.8 nM.

Question: And the inhibition [10]?
Answer: The inhibition was 98%.

Question: And the inhibition [11]?
Answer: Its inhibition is 87%.

Question: And the inhibition [12]?
Answer: The inhibition was “Active”.

Question: What about the ALD50 [13] of the same compound?
Answer: The ALD50 was 2000 mg/kg.

Question: What about the inhibition [14] of the same compound?
Answer: The inhibition was 98%.

Question: What about the inhibition [15] of the same compound?
Answer: The inhibition was 22%.

Question: And the LD50 [16]?
Answer: Its LD50 is 2000 mg/kg.

Question: What about the Activity (MV4-11 [17]) of the same compound?
Answer: Its Activity is “Active”.

Question: What about the inhibition [18] of the same compound?
Answer: The inhibition was 99%.

Question: And the inhibition [19]?
Answer: Its inhibition is 5%.

Question: And the GI50 (MOLM-14 [20])?
Answer: Its GI50 is 1.85 nM.

Question: And the IC50 [21]?
Answer: Its IC50 is 4.2 nM.

Question: And the IC50 [22]?
Answer: The IC50 was 2.04 nM.

Question: And the IC50 [23]?
Answer: Its IC50 is 5.54 nM.

Question: What about the LD50 [24] of the same compound?
Answer: The LD50 was 4950 mg/kg.

Question: What about the inhibition [25] of the same compound?
Answer: The inhibition was 92%.

Question: What about the inhibition [26] of the same compound?
Answer: The inhibition was 89%.

Question: And the IC50 [27]?
Answer: The IC50 was 1.21 nM.

Question: And the GI50 (MV4-11 [28])?
Answer: The GI50 was 1 nM.

Question: What about the AUC(0-t) at 24 h [29] of the same compound?
Answer: The AUC(0-t) at 24 h was 417 ng·h/mL.

Question: What about the GI50 (K562) of the same compound?
Answer: The GI50 was 437 nM.

Question: And the GI50 (MOLM-14 [30])?
Answer: The GI50 was 4.88 nM.

Question: And the inhibition at 10 µM (hERG (KCNH2))?
Answer: The inhibition at 10 µM was 21.4%.

Question: And the GI50 (HepG2)?
Answer: The GI50 was 1100 nM.

Question: What about the inhibition [31] of the same compound?
Answer: Its inhibition is 100%.

Question: And the GI50 (MOLM-14 [32])?
Answer: Its GI50 is 3.27 nM.

Question: And the inhibition [33]?
Answer: Its inhibition is 100%.

Question: What about the IC50 [34] of the same compound?
Answer: Its IC50 is 3.01 nM.

Question: And the Cmax [35]?
Answer: Its Cmax is 36.5 ng/mL.

Question: And the inhibition at 1 µM (MDA-MB-231)?
Answer: The inhibition at 1 µM was 8.95%.

Question: And the IC50 [36]?
Answer: Its IC50 is 9.52 nM.

Question: And the RatioGI50 [37]?
Answer: The RatioGI50 was 430.

Question: What about the inhibition [38] of the same compound?
Answer: Its inhibition is 99%.

Question: And the bioavailability [39]?
Answer: The bioavailability was 42.6%.
